Results as given in the NIST ThermoML archive (doi:10.1021/acs.jced.7b00192).
± gives the expanded uncertainty stated by the source.

Assay: molar heat capacity at constant pressure; mn = molality of the nth substance listed, in mol/kg
Details: 10000 kPa, Liquid, Large sample (1 g) DSC

[K+].[OH-] [potassium hydroxide] + O
molar heat capacity at constant pressure [J/K/mol]
Details	m1 = 0.201	m1 = 0.5009	m1 = 0.999	m1 = 2.012	m1 = 3	m1 = 4.505	m1 = 6.002
448.7 K	–	–	75.9 ± 1.2	74.44 ± 1.2	73.28 ± 1.1	72.37 ± 1.1	–
461 K	78.47 ± 1.2	77.61 ± 1.2	76.51 ± 1.2	74.86 ± 1.2	73.71 ± 1.1	72.74 ± 1.1	72.04 ± 1.1
473.4 K	79.36 ± 1.2	78.39 ± 1.2	77.23 ± 1.2	75.47 ± 1.2	74.29 ± 1.2	73.14 ± 1.1	72.44 ± 1.1
485.7 K	80.4 ± 1.2	79.34 ± 1.2	–	–	74.75 ± 1.2	73.56 ± 1.1	72.83 ± 1.1
485.8 K	–	–	78 ± 1.2	76.01 ± 1.2	–	–	–
498.1 K	81.6 ± 1.3	80.4 ± 1.2	78.94 ± 1.2	76.7 ± 1.2	75.36 ± 1.2	74.05 ± 1.1	73.27 ± 1.1
510.5 K	83.06 ± 1.3	81.72 ± 1.3	80 ± 1.2	77.49 ± 1.2	75.91 ± 1.2	74.43 ± 1.2	73.69 ± 1.1
522.8 K	84.83 ± 1.3	83.26 ± 1.3	81.23 ± 1.3	–	76.7 ± 1.2	74.99 ± 1.2	74.16 ± 1.1
522.9 K	–	–	–	78.41 ± 1.2	–	–	–
535.2 K	87.02 ± 1.3	85.12 ± 1.3	82.83 ± 1.3	79.52 ± 1.2	77.5 ± 1.2	75.54 ± 1.2	74.51 ± 1.2
547.6 K	89.76 ± 1.4	87.48 ± 1.4	84.7 ± 1.3	80.95 ± 1.3	78.49 ± 1.2	76.26 ± 1.2	75.11 ± 1.2
555 K	91.77 ± 1.4	89.19 ± 1.4	86.04 ± 1.3	81.81 ± 1.3	79.19 ± 1.2	76.73 ± 1.2	75.41 ± 1.2
564.9 K	95.05 ± 1.5	91.89 ± 1.4	88.12 ± 1.4	83.07 ± 1.3	80.09 ± 1.2	77.46 ± 1.2	75.77 ± 1.2
